The values that follow come from publication PMC8226449, “In Vitro Evaluation of the Squaramide-Conjugated Fibroblast Activation Protein Inhibitor-Based Agents AAZTA^5.SA.FAPi and DOTA.SA.FAPi” (Molecules, 2021).

Data set [1] is described as follows: Lipophilicity (logD) by shake-flask method. In kind it is physicochemical. Particulars: pH = 7.4, 1-octanol/PBS. On the procedure:
Lipophilicity (logD value) was determined via the “shake-flask” method. For both precursors AAZTA^5.SA.FAPi and DOTA.SA.FAPi logD (pH = 7.4), values were measured for the ^68Ga- and ^44Sc complexes.
Lipophilicity of [^68Ga]Ga-AAZTA^5.SA.FAPi, [^44Sc]Sc-AAZTA^5.SA.FAPi and [^68Ga]Ga-DOTA.SA.FAPi was determined using the “shake-flask” methodology. After reaction of the precursor with the respective radionuclide, the reaction solution was adjusted to pH 7.4 with NaOH. Aliquots of ~5 MBq for the ^68Ga complexes and of ~3 MBq for the ^44Sc-complexed were taken and adjusted to a total volume of 700 μL with PBS (n= 4). 700 μL 1-octanol was added, and the solution was shaken for 2 min (1500 rpm). Afterwards, each tube was centrifuged for 2 min. 400 μL of the octanol- and PBS phases were pipetted in new tubes, and aliquots of each phase (3 µL of the PBS phase and 6 μL of the octanol phase) were measured via radio-TLC. The PBS phases were adjusted to 700 µL, and 700 μL octanol was added to each tube. The procedure was repeated twice. LogD values were calculated as the logarithm of the octanol/PBS ratio.

Data set [2] is described as follows: Stability of radiolabelled complexes in human serum. In kind it is in vitro ADME. To be noted: human serum (HS), 37 °C, over 2 h. As to the method:
(§1) Labeling was carried out with 100–150 MBq gallium-68 in 300 µL of 1 M ammonium acetate (AmAc) buffer pH 5.5 and with 30–40 MBq scandium-44 in 1 mL of 0.25 M AmAc pH 4.0, and aliquots were taken at 1, 3, 5, 10, and 15 min. For lutetium-177, activity of 30–40 MBq in 300 µL of 1 M AmAc pH 5.5 was used, and aliquots were taken at 1, 3, 5, 15, 30, and 60 min. Stability was tested in 500 µL of human serum, phosphate-buffered saline, ethanol, and saline (0.9% isotonic NaCl solution) using ~5 MBq of tracer solution with >95% radiochemical purity. […] HS (human male AB plasma, USA origin) and PBS were purchased from Sigma Aldrich, and 0.9% saline from B. Braun Melsungen AG (Melsungen, Germany).

Data set [3] in a line: Stability of radiolabelled complexes in PBS, saline (NaCl) and ethanol. The format is physicochemical. To be noted: ethanol (EtOH) and saline (NaCl), 37 °C, over 2 h. As to the method: as §1
On the set-up of data set [4]: method as in PMID 32332144. Particulars: reported in the literature; cited from earlier work.

Molecule `N#C[C@@H]1CC(F)(F)CN1C(=O)CNC(=O)c1ccnc2ccc(OCCCCNc3c(NCCNC(=O)CCCCC4(N(CC(=O)[O-])CC(=O)[O-])CN(CC(=O)[O-])CCN(CC(=O)[O-])C4)c(=O)c3=O)cc12.[68Ga+3]` [[^68Ga]Ga-AAZTA^5.SA.FAPi] displayed a LogD7.4 in data set [1] of −2.53 ± 0.13. The “intact complexes (stability)” value in data set [2] and in data set [3] was above 99.9% each time.

For `N#C[C@@H]1CC(F)(F)CN1C(=O)CNC(=O)c1ccnc2ccc(OCCCN3CCN(C(=O)CN4CCN(CC(=O)O)CCN(CC(=O)O)CCN(CC(=O)O)CC4)CC3)cc12` (68Ga complex, metal not drawn) [FAPI-04], in data set [4], the log distribution coefficient (logD) is given as −2.4 ± 0.28.
